Test results from the NIST ThermoML archive (doi:10.1016/j.jct.2014.01.008).
Values joined by “and” are separate entries in the source; they are usually repeats but may differ in a detail not shown here. Equal values may be shown once.

Columns and labels:
[1] = Solid-liquid equilibrium temperature; settings: Crystal, visual observation
[2] = Liquid, Falling or rolling sphere viscometry

CCCCCCCCCCCCCCCCCCCC [eicosane]
[1]
Settings	Solid-liquid equilibrium temperature [K]
21600 kPa	315.6
61500 kPa	325.3
105500 kPa	334.8
153800 kPa	344.6
218800 kPa	355.9
263800 kPa	364.3

[2]
Settings	viscosity
325.8 K, 6700 kPa	3.184 mPa·s and 3.193 mPa·s
325.8 K, 14400 kPa	3.511 mPa·s and 3.528 mPa·s
325.8 K, 21300 kPa	3.828 mPa·s
325.8 K, 22300 kPa	3.908 mPa·s
325.8 K, 28700 kPa	4.25 mPa·s
325.8 K, 35500 kPa	4.642 mPa·s
429.3 K, 5500 kPa	0.837 mPa·s
429.3 K, 7400 kPa	0.858 mPa·s
429.3 K, 21800 kPa	1.029 mPa·s
429.3 K, 41800 kPa	1.262 mPa·s
429.3 K, 63000 kPa	1.498 mPa·s and 1.523 mPa·s
429.3 K, 83000 kPa	1.777 mPa·s
429.3 K, 103700 kPa	2.043 mPa·s
429.3 K, 125000 kPa	2.351 mPa·s
429.3 K, 144500 kPa	2.631 mPa·s
429.3 K, 144700 kPa	2.638 mPa·s
429.3 K, 167900 kPa	2.988 mPa·s
429.3 K, 187900 kPa	3.321 mPa·s
429.3 K, 208900 kPa	3.685 mPa·s
429.3 K, 228600 kPa	4.04 mPa·s
429.3 K, 243100 kPa	4.327 mPa·s
533.8 K, 6200 kPa	0.346 mPa·s
533.8 K, 22900 kPa	0.425 mPa·s
533.8 K, 43300 kPa	0.541 mPa·s
533.8 K, 43500 kPa	0.541 mPa·s
533.8 K, 63200 kPa	0.647 mPa·s
533.8 K, 84300 kPa	0.75 mPa·s
533.8 K, 104400 kPa	0.861 mPa·s
533.8 K, 125000 kPa	0.977 mPa·s
533.8 K, 146100 kPa	1.097 mPa·s
533.8 K, 165900 kPa	1.199 mPa·s
533.8 K, 187300 kPa	1.341 mPa·s
533.8 K, 208200 kPa	1.444 mPa·s
533.8 K, 228800 kPa	1.556 mPa·s

CCCCCCCCCCCCCCCC [hexadecane]
[1]
Settings	Solid-liquid equilibrium temperature [K]
54300 kPa	303.6
106300 kPa	314.5
158900 kPa	325
210600 kPa	333.9
267700 kPa	344.4

[2]
Settings	viscosity
303.9 K, 3300 kPa	2.826 mPa·s
303.9 K, 7300 kPa	2.959 mPa·s
303.9 K, 12900 kPa	3.184 mPa·s
303.9 K, 19000 kPa	3.454 mPa·s
303.9 K, 26800 kPa	3.793 mPa·s
303.9 K, 33600 kPa	4.107 mPa·s
325.7 K, 8100 kPa	1.943 mPa·s
325.7 K, 8300 kPa	1.956 mPa·s
325.7 K, 21500 kPa	2.263 mPa·s
325.7 K, 35600 kPa	2.675 mPa·s
325.7 K, 49300 kPa	3.067 mPa·s
325.7 K, 63600 kPa	3.55 mPa·s
325.7 K, 77500 kPa	4.056 mPa·s
325.7 K, 91800 kPa	4.625 mPa·s
325.7 K, 104100 kPa	5.179 mPa·s
325.7 K, 119200 kPa	5.865 mPa·s
325.7 K, 122700 kPa	6.07 mPa·s
429.1 K, 12800 kPa	0.582 mPa·s and 0.586 mPa·s
429.1 K, 22200 kPa	0.649 mPa·s
429.1 K, 22700 kPa	0.65 mPa·s
429.1 K, 35800 kPa	0.742 mPa·s
429.1 K, 70500 kPa	1.01 mPa·s
429.1 K, 91600 kPa	1.181 mPa·s
429.1 K, 118800 kPa	1.405 mPa·s
429.1 K, 140300 kPa	1.594 mPa·s
429.1 K, 167800 kPa	1.847 mPa·s
429.1 K, 188000 kPa	2.046 mPa·s
429.1 K, 222900 kPa	2.459 mPa·s
533.7 K, 14100 kPa	0.272 mPa·s
533.7 K, 14300 kPa	0.276 mPa·s
533.7 K, 29900 kPa	0.341 mPa·s
533.7 K, 30100 kPa	0.342 mPa·s
533.7 K, 50400 kPa	0.43 mPa·s
533.7 K, 50500 kPa	0.433 mPa·s
533.7 K, 77100 kPa	0.534 mPa·s
533.7 K, 104600 kPa	0.642 mPa·s
533.7 K, 125000 kPa	0.721 mPa·s
533.7 K, 152800 kPa	0.829 mPa·s
533.7 K, 188400 kPa	0.983 mPa·s
533.7 K, 210000 kPa	1.077 mPa·s
533.7 K, 226600 kPa	1.154 mPa·s

CCCCCCCCCCCCCCCCCC [octadecane]
[1]
Settings	Solid-liquid equilibrium temperature [K]
59900 kPa	315.2
102800 kPa	324.6
151000 kPa	334.8
205400 kPa	344.7
256400 kPa	354.2

[2]
Settings	viscosity
325.6 K, 9800 kPa	2.598 mPa·s
325.6 K, 16400 kPa	2.778 mPa·s
325.6 K, 29600 kPa	3.247 mPa·s
325.6 K, 37200 kPa	3.568 mPa·s
325.6 K, 51000 kPa	4.157 mPa·s
325.6 K, 60500 kPa	4.578 mPa·s
325.6 K, 69000 kPa	4.98 mPa·s
325.6 K, 70800 kPa	5.095 mPa·s
428.9 K, 6800 kPa	0.685 mPa·s
428.9 K, 21900 kPa	0.831 mPa·s
428.9 K, 42100 kPa	1.023 mPa·s
428.9 K, 63400 kPa	1.232 mPa·s
428.9 K, 84300 kPa	1.446 mPa·s
428.9 K, 104900 kPa	1.649 mPa·s
428.9 K, 125500 kPa	1.878 mPa·s
428.9 K, 147800 kPa	2.125 mPa·s
428.9 K, 168000 kPa	2.392 mPa·s
428.9 K, 188600 kPa	2.65 mPa·s
428.9 K, 209600 kPa	2.928 mPa·s
428.9 K, 230000 kPa	3.207 mPa·s
428.9 K, 243100 kPa	3.396 mPa·s
533.9 K, 9200 kPa	0.303 mPa·s
533.9 K, 9500 kPa	0.305 mPa·s
533.9 K, 15200 kPa	0.336 mPa·s
533.9 K, 22500 kPa	0.38 mPa·s
533.9 K, 44600 kPa	0.497 mPa·s
533.9 K, 64000 kPa	0.579 mPa·s
533.9 K, 85700 kPa	0.686 mPa·s
533.9 K, 105900 kPa	0.784 mPa·s
533.9 K, 126600 kPa	0.88 mPa·s
533.9 K, 147600 kPa	0.975 mPa·s and 0.985 mPa·s
533.9 K, 167700 kPa	1.077 mPa·s
533.9 K, 188600 kPa	1.201 mPa·s
533.9 K, 209100 kPa	1.313 mPa·s
533.9 K, 229300 kPa	1.411 mPa·s
533.9 K, 242900 kPa	1.491 mPa·s
